Literature values as cited in paper PMC3618595 (Pharmaceutical research, 2013).

Key:
[1] = cited from earlier work
plasma proteins = conditions: cited from earlier work
hASBT = target: T1, hASBT (Homo sapiens, UniProt Q12908); conditions: taurocholate; cited from earlier work
T1 sequence (Q12908 1-348): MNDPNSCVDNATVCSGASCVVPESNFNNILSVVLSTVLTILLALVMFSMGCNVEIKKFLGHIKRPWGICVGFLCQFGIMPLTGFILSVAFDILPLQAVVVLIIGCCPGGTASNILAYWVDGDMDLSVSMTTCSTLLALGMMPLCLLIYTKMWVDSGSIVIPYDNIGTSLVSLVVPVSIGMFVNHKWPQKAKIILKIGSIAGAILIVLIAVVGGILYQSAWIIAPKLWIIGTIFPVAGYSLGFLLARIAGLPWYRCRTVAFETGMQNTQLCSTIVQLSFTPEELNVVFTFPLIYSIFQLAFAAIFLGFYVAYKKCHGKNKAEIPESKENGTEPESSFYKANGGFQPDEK

Compound | Octanol/water partition coefficient [1] | Binding to plasma proteins (plasma proteins) [%] | Km (hASBT) [µM]
C[C@H](CCC(=O)O)[C@H]1CC[C@H]2[C@@H]3[C@H](O)C[C@@H]4C[C@H](O)CC[C@]4(C)[C@H]3CC[C@]12C [chenodeoxycholic acid] | 23.3 | 96.2 | 
C[C@H](CCC(=O)NCCS(=O)(=O)O)[C@H]1CC[C@H]2[C@@H]3[C@H](O)C[C@@H]4C[C@H](O)CC[C@]4(C)[C@H]3C[C@H](O)[C@]12C [taurocholate] |  |  | 4.39
